Source: patent US7427612B2, “Benzoyl-piperazine derivatives” (Hoffmann-La Roche Inc., priority 2003, dated 2008)

What follows are molecules tested against T1, mGlyT-1b (Mus musculus, UniProt P28571) (assay: Glycine uptake inhibition assay (mGlyT-1b)). Conditions: inhibition of [3H]-glycine uptake in Flp-in-CHO cells stably transfected with mGlyT1b cDNA; 20 min at 22° C.
T1 construct: host or cells: Flp-in CHO cells, stably transfected
T1 sequence (P28571 1-651 isoform P28571-2): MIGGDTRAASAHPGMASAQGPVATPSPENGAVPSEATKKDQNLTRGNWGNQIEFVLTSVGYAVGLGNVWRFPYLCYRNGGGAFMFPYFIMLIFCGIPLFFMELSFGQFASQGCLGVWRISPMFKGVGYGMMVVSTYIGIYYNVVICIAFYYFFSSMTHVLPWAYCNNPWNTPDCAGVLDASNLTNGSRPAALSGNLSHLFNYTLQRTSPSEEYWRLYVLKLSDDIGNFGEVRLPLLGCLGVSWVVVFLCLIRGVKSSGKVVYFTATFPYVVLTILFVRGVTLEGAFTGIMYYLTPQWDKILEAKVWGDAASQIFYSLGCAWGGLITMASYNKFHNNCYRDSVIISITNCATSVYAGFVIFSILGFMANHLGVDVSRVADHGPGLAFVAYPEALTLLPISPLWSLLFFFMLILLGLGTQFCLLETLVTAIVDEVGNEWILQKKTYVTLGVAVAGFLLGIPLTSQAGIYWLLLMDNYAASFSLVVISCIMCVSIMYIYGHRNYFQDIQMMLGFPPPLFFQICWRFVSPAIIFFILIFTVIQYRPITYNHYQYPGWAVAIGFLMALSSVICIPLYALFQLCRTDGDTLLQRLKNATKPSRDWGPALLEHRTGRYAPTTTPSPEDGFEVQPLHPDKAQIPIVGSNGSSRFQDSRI
Assay type: cell-based
Protocol: DMEM complete medium: Nutrient mixture F-12 (Gibco Life-technologies), fetal bovine serum (FBS) 5%, (Gibco life technologies), Penicillin/Streptomycin 1% (Gibco life technologies), Hygromycin 0.6 mg/ml (Gibco life technologies), Glutamine 1 mM Gibco life technologies)
Uptake buffer (UB): 150 mM NaCl, 10 mM Hepes-Tris, pH 7.4, 1 mM CaCl2, 2.5 mM KCl, 2.5 mM MgSO4, 10 mM (+) D-glucose. Flp-in™—CHO (Invitrogen Cat n° R758-07)cells stably transfected with mGlyT1b cDNA.
Glycine uptake inhibition assay (mGlyT-1b)
On Day 1 mammallian cells, (Flp-in™—CHO), transfected with mGlyT-1b cDNA, were plated at the density of 40,000 cells/well in complete F-12 medium, without hygromycin in 96-well culture plates. On day 2, the medium was aspirated and the cells were washed twice with uptake buffer (UB). The cells were then incubated for 20 min at 22° C. with either (i) no potential competitor, (ii) 10 mM non-radioactive glycine, (iii) a concentration of a potential inhibitor. A range of concentrations of the potential inhibitor was used to generate data for calculating the concentration of inhibitor resulting in 50% of the effect (e.g. IC50, the concentration of the competitor inhibiting glycine uptake of 50%). A solution was then immediately added containing [^3H]-glycine 60 nM (11-16 Ci/mmol) and 25 μM non-radioactive glycine. The plates were incubated with gentle shaking and the reaction was stopped by aspiration of the mixture and washing (three times) with ice-cold UB. The cells were lysed with scintillation liquid, shaken 3 hours and the radioactivity in the cells was counted using a scintillation counter.

Row | Structure (SMILES) | IC50 [nM]
1 | CS(=O)(=O)c1ccc(N2CCCCC2)c(C(=O)N2CCN(c3ccc(C#N)c(F)c3)CC2)c1 [Example 217, 2-Fluoro-4-[4-(5-methanesulfonyl-2-piperidin-1-yl-benzoyl)-piperazin-1-yl]-benzonitrile] | 16
2 | CS(=O)(=O)c1ccc(N2CCCCC2)c(C(=O)N2CCN(c3ccc(C(F)(F)F)cc3F)CC2)c1 [Example 219, [4-(2-Fluoro-4-trifluoromethyl-phenyl)piperazin-1-yl]-(5-methanesulfonyl-2-piperidin-1-yl-phenyl)-methanone] | 17
3 | CS(=O)(=O)c1ccc(N2CCCCC2)c(C(=O)N2CCN(c3ccc(C(F)(F)F)c(F)c3)CC2)c1 [Example 220, [4-(3-Fluoro-4-trifluoromethyl-phenyl)piperazin-1-yl]-(5-methanesulfonyl-2-piperidin-1-yl-phenyl)-methanone] | 19
4 | CNS(=O)(=O)c1ccc(N2CCCC2)c(C(=O)N2CCN(c3ccc(C#N)cc3)CC2)c1 [Example 233, 3-[4-(4-Cyano-phenyl)-piperazine-1-carbonyl]-N-methyl-4-pyrrolidin-1-yl-benzenesulfonamide] | 16
5 | CNS(=O)(=O)c1ccc(N2CCCC2)c(C(=O)N2CCN(c3ccc(C#N)cc3F)CC2)c1 [Example 234, 3-[4-(4-Cyano-2-fluoro-phenyl)-piperazine-1-carbonyl]-N-methyl-4-pyrrolidin-1-yl-benzenesulfonamide] | 10
6 | CNS(=O)(=O)c1ccc(N2CCCC2)c(C(=O)N2CCN(c3ccc(C(F)(F)F)cc3F)CC2)c1 [Example 235, 3-[4-(2-Fluoro-4-trifluoro-methyl-phenyl)-piperazine-1-carbonyl]-N-methyl-4-pyrrolidin-1-yl-benzenesulfonamide] | 6.5
7 | CNS(=O)(=O)c1ccc(N2CCCC2)c(C(=O)N2CCN(c3ccc(C(F)(F)F)c(F)c3)CC2)c1 [Example 236, 3-[4-(3-Fluoro-4-trifluoromethyl-phenyl)-piperazine-1-carbonyl]-N-methyl-4-pyrrolidin-1-yl-benzenesulfonamide] | 4
8 | CNS(=O)(=O)c1ccc(N2CCCCC2)c(C(=O)N2CCN(c3ccc(C(C)=O)cc3F)CC2)c1 [Example 245, 3-[4-(4-Acetyl-2-fluoro-phenyl)-piperazine-1-carbonyl]-N-methyl-4-piperidin-1-yl-benzene-sulfonamide] | 18
9 | CNS(=O)(=O)c1ccc(N2CCCCC2)c(C(=O)N2CCN(c3ccc(C#N)cc3)CC2)c1 [Example 246, 3-[4-(4-Cyano-phenyl)-piperazine-1-carbonyl]-N-methyl-4-piperidin-1-yl-benzenesulfonamide] | 11
10 | CNS(=O)(=O)c1ccc(N2CCCCC2)c(C(=O)N2CCN(c3ccc(C#N)cc3F)CC2)c1 [Example 247, 3-[4-(4-Cyano-2-fluoro-phenyl)-piperazine-1-carbonyl]-N-methyl-4-piperidin-1-yl-benzene-sulfonamide] | 14
11 | CNS(=O)(=O)c1ccc(N2CCCCC2)c(C(=O)N2CCN(c3ccc(C#N)c(F)c3)CC2)c1 [Example 248, 3-[4-(4-Cyano-3-fluoro-phenyl)-piperazine-1-carbonyl]-N-methyl-4-piperidin-1-yl-benzenesulfonamide] | 10
12 | CNS(=O)(=O)c1ccc(N2CCCCC2)c(C(=O)N2CCN(c3ccc(C(F)(F)F)cc3F)CC2)c1 [Example 250, 3-[4-(2-Fluoro-4-trifluoromethyl-phenyl)-piperazine-1-carbonyl]-N-methyl-4-piperidin-1-yl-benzenesulfonamide] | 15
13 | CNS(=O)(=O)c1ccc(N2CCCCC2)c(C(=O)N2CCN(c3ccc(C(F)(F)F)c(F)c3)CC2)c1 [Example 251, 3-[4-(3-Fluoro-4-trifluoro-methyl-phenyl)-piperazine-1-carbonyl]-N-methyl-4-piperidin-1-yl-benzenesulfonamide] | 19
14 | CNS(=O)(=O)c1ccc(N2CCOCC2)c(C(=O)N2CCN(c3ccc(C(F)(F)F)cc3F)CC2)c1 [Example 263, 3-[4-(2-Fluoro-4-trifluoro-methyl-phenyl)-piperazine-1-carbonyl]-N-methyl-4-morpholin-4-yl-benzene-sulfonamide] | 10
15 | CNS(=O)(=O)c1ccc(N2CCOCC2)c(C(=O)N2CCN(c3ccc(C(F)(F)F)c(F)c3)CC2)c1 [Example 264, 3-[4-(3-Fluoro-4-trifluoro-methyl-phenyl)-piperazine-1-carbonyl]-N-methyl-4-morpholin-4-yl-benzenesulfonamide] | 12
